Tested on: rabbit ventricular myocytes
Test: Two-dimensional gel electrophoresis proteomic analysis of protein modifications in pharmacologically preconditioned isolated ventricular myocytes
Format: cell-based
Settings: 100 μmol/L, 60 minutes, 37° C.; for level of ADP ribosyl hydrolase: drug treated extracts relative to matching control extracts
From the text: Protein modifications occurring during preconditioning were identified by a multi-tiered two-dimensional gel electrophoresis approach (see FIG. 3) and subsequent analysis of the cytoplasmic and TFA extracts of adenosine and diazoxide-treated isolated cardiomyocytes (n=4) at concentrations capable of invoking preconditioning. […] The modified proteins identified herein are referred to as preconditioning proteins. Ventricular myocytes from New Zealand White rabbits (weighing 1 to 2 kg) were isolated by collagenase dissociation, as described previously by Liu et al. (Circ. Res. 1996 78:443–454). Hearts were excised, then perfused with collagenase (1.0 mg/mL, Worthington type II) for 14 minutes at a maintained perfusion pressure of 75 mm Hg on a Langendorff apparatus, yielding>50% Ca^2+-tolerant ventricular myocytes. Cell isolation was followed directly by pharmacological preconditioning, which was carried out by treatment with 100 μmol/L adenosine (Sigma) or with 100 μmol/L diazoxide (Sigma) for 60 minutes in a 37° C. water bath, as described previously by Liu et al. supra. Untreated cells were prepared concurrently as drug-free controls. Equivalent 25 μL aliquots of cells (containing ˜30 mg/mL of protein as determined by Lowry assay (Lowry, O. H. J. Biol. Chem. 1951 193:265–275) were frozen and stored at −80° C. until analysis. All steps in this Protein extraction protocol, referred to herein as “In Sequence” and depicted in FIG. 3, produce physiological pH (cytosolic) and acidic pH enriched extracts were carried out at 4° C., and all centrifugations were conducted at 16000×g for 2 minutes at 4° C. Myocyte proteins were first extracted by two rounds of homogenization in 100 μL of HEPES extraction buffer, consisting of (in mmol/L) HEPES 25 (pH 7.4), NaF 50, Na3VO4 0.25, phenylmethylsulfonyl fluoride 0.25, EDTA 0.5, and (in μmol/L) leupeptin 1.25, pepstatin A 1.25. Following homogenization and centrifugation, the supernatants were pooled and saved as the cytosolic extract. The remaining pellet was subjected to further extraction by two rounds of homogenization in 50 μL of acid extraction buffer, consisting of 1% v/v trifluoroacetic acid (TFA) and 1 mmol/L Tris(2-carboxyethylphosphine)hydrochloride (pH ˜2.0). Supernatants were again pooled, and saved as the acid extract. The two extracts and remaining pellet were frozen and stored at −80° C. Isoelectric focusing (IEF) of cytosolic and TFA extracts were carried out using a Protean® IEF cell (Bio-Rad) according to the manufacturer's protocol. Protein loads ranging from 5 up to 250 μg per gel were added to the following rehydration buffers: for cytosolic extracts, 8 M urea, 2.5 M thiourea, 4% CHAPS, 2 mM EDTA, and 25 mM DTT, and in the case of pH 6–9 strips, CHAPS and DTT were substituted by 4% ASB-14 and 5.4% (w/v) 2-hydroxyethyl disulfide, respectively; for acidic extracts, 8 M urea, 4% CHAPS, and 25 mM DTT. Immobilized pH gradient (IPG) Ready Strips™ (170 mm pH 4–7, 6–9, or 3–10 linear gradient, Bio-Rad) were actively rehydrated at 50 volts (V) for 10 hours to enhance protein uptake, then subjected to the following conditions using a rapid voltage ramping method: 100 V for 25 Volt-hours (Vh), 500 V for 125 Vh, 1000 V for 250 Vh, and 8000 V for 65 kVh. A Peltier temperature control platform maintained gels at 20° C. throughout IEF. Focused gels were stored at −20° C. prior to sodium dodecyl sulfate-polyacrylamide gel electrophoresis (SDS-PAGE). For SDS-PAGE, IPG strips were incubated for 10 minutes in equilibration buffer (50 mmol/L Tris-HCl, pH 8.8, 6 mol/L urea, 30% v/v glycerol, 2% w/v SDS) supplemented with 10 mg/mL DTT, followed by a 10 minute incubation in equilibration buffer supplemented with 25 mg/mL iodoacetamide, then rinsed once with SDS-PAGE buffer (25 mmol/L Tris, 192 mmol/L glycine, pH 8.3, 0.1% w/v SDS). IEF strips were then embedded in a 5% acrylamide stacking gel and the proteins were resolved by 10 or 12.5% SDS-PAGE using a Protean® II XL system (Bio-Rad). […]

[1] = 2-D gels vs untreated control myocytes, n=4

level of NG-dimethylarginine dimethylaminohydrolase (DDAH) [1] | level of RNA binding protein regulatory subunit (DJ-1) [1] | level of aldehyde dehydrogenase [1] | level of isocitrate dehydrogenase NAD+ specific subunit alpha (IDH) [1] | level of succinyl CoA ligase [ADP forming] beta chain [1] | level of ADP ribosyl hydrolase | level of dihydrolipoamide succinyltransferase [1] | post-translational modification of protein X (E3 binding protein of the pyruvate dehydrogenase complex) [1] | Structure (SMILES) | level of 24 kDa subunit (mitochondrial precursor) of Complex I [1] | level of 30 kDa subunit (mitochondrial precursor) of Complex I [1] | level of HSP27 [1] | level of core protein I of Complex III [1] | level of metaxin 2 [1] | level of prohibitin [1] | level of δ chain (mitochondrial precursor) of the F1 portion of Complex V [1] | extent of post-translational modification of the β chain of F1 portion (mitochondrial precursor) of Complex V (2-D gels, silver stain or western blot, vs control, two additional more acidic spots) | level of 23 kDa subunit (mitochondrial precursor) of Complex I [1] | level of d chain (mitochondrial precursor) of the F0 portion of Complex V [1] | sarcalumenin (58 kDa isoform) levels (HEPES extract, 2-D gels vs untreated control myocytes)
decreases | increased | increased | increase | increase | increased |  |  | Nc1ncnc2c1ncn2[C@@H]1O[C@H](CO)[C@@H](O)[C@H]1O [adenosine] | increases | increases | did not, however, observe a change | decreased | reduced | increase | increases | increase |  |  | 
increased | increased | increased | increases |  | increased | decrease | increases | CC1=NS(=O)(=O)c2cc(Cl)ccc2N1 [diazoxide] | increased | increased | increase | decreased | reduced |  | increased |  | increased | increased | decrease
